# Reference: PubChem BioAssay (NCI)
#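 Briefly, cells in 96-well plates were exposed to five compound concentrations for 48 h, and endpoints were estimated by linear interpolation. At the GI50, growth is halved. TGI is the concentration that stops growth completely.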
# What was measured:
# Assay in all cases: DTP human tumour cell line panel, 48 h
# [1] = test system: ACHN renal
# [2] = test system: MCF7 breast
# [3] = test system: UACC-257 melanoma
# [4] = test system: SW-620 colon
# [5] = test system: OVCAR-4 ovarian
# [6] = test system: SK-OV-3 ovarian
# [7] = test system: OVCAR-8 ovarian
# [8] = test system: HS 578T breast
# [9] = test system: TK-10 renal
# [10] = test system: HOP-92 NSCLC
# [11] = test system: SK-MEL-5 melanoma
# [12] = test system: SNB-19 CNS
# [13] = test system: A549 NSCLC
# [14] = test system: NCI-H226 lung
# [15] = test system: SK-MEL-2 melanoma
# [16] = test system: MALME-3M melanoma
# [17] = test system: SF-539 CNS
# [18] = test system: K-562 leukemia
# [19] = test system: UO-31 renal
# [20] = test system: MDA-MB-435
# [21] = test system: M14 melanoma
# [22] = test system: NCI/ADR-RES ovarian
# [23] = test system: SN12C renal
# [24] = test system: SR leukemia
# [25] = test system: HCC-2998 colon
# [26] = test system: T-47D breast
# [27] = test system: NCI-H460 lung
# [28] = test system: MOLT-4 leukemia
# [29] = test system: OVCAR-5 ovarian
# [30] = test system: EKVX NSCLC
smiles,measurement,setting,value
CC(C)=CCc1c(O)cc(/C=C/c2cc(O)c3c(c2)C[C@@H]2C(C)(C)[C@H](O)[C@H](O)C[C@@]2(C)O3)cc1O,TGI,[1],> 8.74 µM
same,GI50,[2],7.18 nM
same,TGI,[2],831 nM
same,GI50,[3],2620 nM
same,TGI,[3],> 10 µM
same,GI50,[4],110 nM
same,TGI,[4],1880 nM
same,GI50,[5],831 nM
same,TGI,[5],4.08 µM
same,GI50,[6],264 nM
same,TGI,[6],3.73 µM
same,GI50,[7],1920 nM
same,TGI,[7],> 10 µM
same,GI50,[8],< 1 nM
same,TGI,[8],> 2210 nM
same,GI50,[9],479 nM
same,TGI,[9],> 3.1 µM
same,GI50,[10],10.4 nM
same,TGI,[10],2600 nM
same,GI50,[11],1030 nM
same,TGI,[11],2320 nM
same,GI50,[12],1460 nM
same,TGI,[12],> 10 µM
same,GI50,[13],249 nM
same,TGI,[13],> 10 µM
same,GI50,[14],1990 nM
same,TGI,[14],> 10 µM
same,GI50,[15],44.4 nM
same,GI50,[16],1210 nM
same,TGI,[16],6.51 µM
same,GI50,[17],5.32 nM
same,TGI,[17],2200 nM
same,GI50,[18],15.4 nM
same,TGI,[18],> 9.25 µM
same,GI50,[19],< 1 nM
same,TGI,[19],4.92 µM
same,GI50,[20],662 nM
same,TGI,[20],4.22 µM
same,GI50,[21],548 nM
same,TGI,[21],4.02 µM
same,GI50,[22],1380 nM
same,TGI,[22],7.43 µM
same,GI50,[23],2810 nM
same,TGI,[23],> 10 µM
same,GI50,[24],< 1 nM
same,TGI,[24],> 10 µM
same,GI50,[25],1290 nM
same,TGI,[25],4.17 µM
same,GI50,[26],1850 nM
same,TGI,[26],> 9.39 µM
same,GI50,[27],1.46 nM
same,TGI,[27],> 4.36 µM
same,GI50,[28],< 1 nM
same,TGI,[28],14.8 nM
same,GI50,[29],1360 nM
same,TGI,[29],> 7.96 µM
same,GI50,[30],789 nM
same,TGI,[30],4.49 µM
